Source: patent publication US20250353841A1 (BIOGEN MA INC., priority 2022, published 2025)
pIC50: −log10 of the molar value.

Tested on: mutant Huntington (HTT) protein
Test: HTT Mutant HTRF iPSC assay (mHTT protein lowering)
Type: cell-based
Conditions: human iPSC derived from a HTT patient with a poly-Q49 mutation

SMILES	pIC50
Cc1cn2nc(-c3cc(F)c4nc([C@H]5[C@@H]6CN(C)C[C@@H]65)cn4c3)cc2c(C)n1 [Compound 222, 2-(8-fluoro-2-((1R,5S,6r)-3-methyl-3-azabicyclo[3.1.0]hexan-6-yl)imidazo[1,2-a]pyridin-6-yl)-4,6-dimethylpyrazolo[1,5-a]pyrazine]	> 7.00
Cc1cc2nc(-c3cc(F)c4nc([C@H]5[C@@H]6CN(C)C[C@@H]65)cn4c3)cc(C)n2n1 [Compound 223, 5-(8-fluoro-2-((1R,5S,6r)-3-methyl-3-azabicyclo[3.1.0]hexan-6-yl)imidazo[1,2-a]pyridin-6-yl)-2,7-dimethylpyrazolo[1,5-a]pyrimidine]	6.00 to 7.00
Cc1nc2c(C)cc(-c3cc(F)c4nc(C5CCN(C)CC5)cn4c3)nn2n1 [Compound 224]	> 7.00
COc1cc(-c2cc(F)c3nc(C4CCN(C)CC4)cn3c2)nn2nc(C)nc12 [Compound 225, 6-(8-fluoro-2-(1-methylpiperidin-4-yl)imidazo[1,2-a]pyridin-6-yl)-8-methoxy-2-methyl-[1,2,4]triazolo[1,5-b]pyridazine]	> 7.00
Cc1cn2nc(-c3cc(F)c4nc(C5CCN(C6(C)CC6)CC5)cn4c3)cc(C)c2n1 [Compound 226, 6-[8-fluoro-2-[1-(1-methylcyclopropyl)-4-piperidyl]imidazo[1,2-a]pyridin-6-yl]-2,8-dimethyl-imidazo[1,2-b]pyridazine]	6.00 to 7.00
Cc1nc2c(C)cc(-c3cc(F)c4nc([C@H]5[C@@H]6CN(C)C[C@@H]65)cn4c3)nn2n1 [Compound 227, 6-(8-fluoro-2-((1R,5S,6r)-3-methyl-3-azabicyclo[3.1.0]hexan-6-yl)imidazo[1,2-a]pyridin-6-yl)-2,8-dimethyl-[1,2,4]triazolo[1,5-b]pyridazine]	> 7.00
Cc1cc(-c2cc(F)c3nc([C@H]4[C@@H]5CN(C)C[C@@H]54)cn3c2)nn2cc(C(F)F)nc12 [Compound 228, 2-(difluoromethyl)-6-(8-fluoro-2-((1R,5S,6r)-3-methyl-3-azabicyclo[3.1.0]hexan-6-yl)imidazo[1,2-a]pyridin-6-yl)-8-methylimidazo[1,2-b]pyridazine]	6.00 to 7.00
Cc1cn2nc(-c3cc(F)c4nc(C5CCC6(CCN(C)CC6)C5)cn4c3)cc(C)c2n1 (centres unmarked) [Compound 229, 2-(6-(2,8-dimethylimidazo[1,2-b]pyridazin-6-yl)-8-fluoroimidazo[1,2-a]pyridin-2-yl)-8-methyl-8-azaspiro[4.5]decane]	> 7.00
Cc1cn2nc(-c3cc(F)c4nc([C@H]5[C@@H]6CN(C)C[C@@H]65)cn4c3)cc(C(F)(F)F)c2n1 [Compound 230, 6-(8-fluoro-2-((1R,5S,6r)-3-methyl-3-azabicyclo[3.1.0]hexan-6-yl)imidazo[1,2-a]pyridin-6-yl)-2-methyl-8-(trifluoromethyl)imidazo [1,2-b]pyridazine]	> 7.00
Cc1cn2nc(-c3cc(F)c4nc([C@@H]5C6CCN(C)CC65)cn4c3)cc(C)c2n1 (stereo partly drawn) [Compound 231, 6-(8-fluoro-2-((7R)-3-methyl-3-azabicyclo[4.1.0]heptan-7-yl)imidazo[1,2-a]pyridin-6-yl)-2,8-dimethylimidazo[1,2-b]pyridazine]	> 7.00
Cc1cn2nc(-c3cc(F)c4nc(C5CCC6(CCN(C)C6)C5)cn4c3)cc(C)c2n1 (centres unmarked) [Compound 232, 6-(8-fluoro-2-(2-methyl-2-azaspiro[4.4]nonan-7-yl)imidazo[1,2-a]pyridin-6-yl)-2,8-dimethylimidazo[1,2-b]pyridazine]	> 7.00
Cc1cn2nc(-c3cc(F)c4nc([C@H]5[C@@H]6CN(C)C[C@@H]65)cn4c3)cc(C(F)F)c2n1 [Compound 233, 8-(difluoromethyl)-6-(8-fluoro-2-((1R,5S,6r)-3-methyl-3-azabicyclo[3.1.0]hexan-6-yl)imidazo[1,2-a]pyridin-6-yl)-2-methylimidazo[1,2-b]pyridazine]	> 7.00
Cc1cn2cc(-c3cc(F)c4nc(CC5CCNCC5)cn4c3)cc(F)c2n1 [Compound 236, 8,8′-difluoro-2-methyl-2′-(piperidin-4-ylmethyl)-6,6′-biimidazo[1,2-a]pyridine]	6.00 to 7.00
Cc1cn2nc(-c3cc(F)c4nc(CC5CCN(C)CC5)cn4c3)cc(C)c2n1 [Compound 237, 6-(8-fluoro-2-((1-methylpiperidin-4-yl)methyl)imidazo[1,2-a]pyridin-6-yl)-2,8-dimethylimidazo[1,2-b]pyridazine]	> 7.00
Cc1cn2nc(-c3cc(F)c4nc(CC5CCNCC5)cn4c3)cc(C)c2n1 [Compound 238, 6-(8-fluoro-2-(piperidin-4-ylmethyl)imidazo[1,2-a]pyridin-6-yl)-2,8-dimethylimidazo[1,2-b]pyridazine]	> 7.00
Cc1cn2nc(-c3cc(F)c4nc(NC(=O)[C@H]5[C@@H]6CNC[C@@H]65)cn4c3)cc(C)c2n1 [Compound 246, (1R,5S,6r)-N-(6-(2,8-dimethylimidazo[1,2-b]pyridazin-6-yl)-8-fluoroimidazo[1,2-a]pyridin-2-yl)-3-azabicyclo[3.1.0]hexane-6-carboxamide]	> 7.00

SMILES	pIC50
Cc1cn2nc(-c3cc(F)c4nc(NC(=O)C5CCCNC5)cn4c3)cc(C)c2n1 (centres unmarked) [Compound 248, N-(6-(2,8-dimethylimidazo[1,2-b]pyridazin-6-yl)-8-fluoroimidazo[1,2-a]pyridin-2-yl)piperidine-3-carboxamide]	> 7.00
CNC1CC(C(=O)Nc2cn3cc(-c4cc(C)c5nc(C)cn5n4)cc(F)c3n2)C1 (centres unmarked) [Compound 249, N-(6-(2,8-dimethylimidazo[1,2-b]pyridazin-6-yl)-8-fluoroimidazo[1,2-a]pyridin-2-yl)-3-(methylamino)cyclobutane-1-carboxamide]	> 7.00
Cc1cn2nc(-c3cc(F)c4nc(NC(=O)C5CCNCC5)cn4c3)cc(C)c2n1 [Compound 250, N-(6-(2,8-dimethylimidazo[1,2-b]pyridazin-6-yl)-8-fluoroimidazo[1,2-a]pyridin-2-yl)piperidine-4-carboxamide]	6.00 to 7.00
Cc1cn2nc(-c3cc(F)c4nc(NC(=O)C5CC(CN(C)C)C5)cn4c3)cc(C)c2n1 (centres unmarked) [Compound 251, 3-((dimethylamino)methyl)-N-(6-(2,8-dimethylimidazo[1,2-b]pyridazin-6-yl)-8-fluoroimidazo[1,2-a]pyridin-2-yl)cyclobutane-1-carboxamide]	6.00 to 7.00
Cc1cn2nc(-c3cc(F)c4nc(NC(=O)C5CC6(CCNC6)C5)cn4c3)cc(C)c2n1 (centres unmarked) [Compound 252, N-(6-(2,8-dimethylimidazo[1,2-b]pyridazin-6-yl)-8-fluoroimidazo[1,2-a]pyridin-2-yl)-6-azaspiro[3.4]octane-2-carboxamide]	6.00 to 7.00
Cc1cn2nc(-c3cc(F)c4nc(NC(=O)C5CN(C6COC6)C5)cn4c3)cc(C)c2n1 [Compound 254, N-(6-(2,8-dimethylimidazo[1,2-b]pyridazin-6-yl)-8-fluoroimidazo[1,2-a]pyridin-2-yl)-1-(oxetan-3-yl)azetidine-3-carboxamide]	> 7.00
Cc1cn2nc(-c3cc(F)c4nc(NC(=O)C5COC5)cn4c3)cc(C)c2n1 [Compound 256, N-(6-(2,8-dimethylimidazo[1,2-b]pyridazin-6-yl)-8-fluoroimidazo[1,2-a]pyridin-2-yl)oxetane-3-carboxamide]	6.00 to 7.00
Cc1cn2nc(-c3cc(F)c4nc(NC(=O)C5CN(C)C5)cn4c3)cc(C)c2n1 [Compound 257, N-(6-(2,8-dimethylimidazo[1,2-b]pyridazin-6-yl)-8-fluoroimidazo[1,2-a]pyridin-2-yl)-1-methylazetidine-3-carboxamide]	> 7.00
Cc1cn2nc(-c3cc(F)c4nc(NC(=O)C5(C)CNC5)cn4c3)cc(C)c2n1 [Compound 258, N-(6-(2,8-dimethylimidazo[1,2-b]pyridazin-6-yl)-8-fluoroimidazo[1,2-a]pyridin-2-yl)-3-methylazetidine-3-carboxamide]	> 7.00
Cc1cn2nc(-c3cc(F)c4nc(NC(=O)C5(C)CN(C)C5)cn4c3)cc(C)c2n1 [Compound 261, N-(6-(2,8-dimethylimidazo[1,2-b]pyridazin-6-yl)-8-fluoroimidazo[1,2-a]pyridin-2-yl)-1,3-dimethylazetidine-3-carboxamide]	> 7.00
Cc1cn2nc(-c3cc(F)c4nc(NC(=O)[C@H]5[C@@H]6CN(C)C[C@@H]65)cn4c3)cc(C)c2n1 [Compound 262, (1R,5S,6r)-N-(6-(2,8-dimethylimidazo[1,2-b]pyridazin-6-yl)-8-fluoroimidazo[1,2-a]pyridin-2-yl)-3-methyl-3-azabicyclo[3.1.0]hexane-6-carboxamide]	> 7.00
Cc1cn2nc(-c3cc(F)c4nc(NC(=O)C5CN(C6CCC6)C5)cn4c3)cc(C)c2n1 [Compound 263, 1-cyclobutyl-N-(6-(2,8-dimethylimidazo[1,2-b]pyridazin-6-yl)-8-fluoroimidazo[1,2-a]pyridin-2-yl)azetidine-3-carboxamide]	> 7.00
Cc1cn2nc(-c3cc(F)c4nc(NC(=O)C5CN(C6CC6)C5)cn4c3)cc(C)c2n1 [Compound 265, 1-cyclopropyl-N-(6-(2,8-dimethylimidazo[1,2-b]pyridazin-6-yl)-8-fluoroimidazo[1,2-a]pyridin-2-yl)azetidine-3-carboxamide]	> 7.00
Cc1cn2nc(-c3cc(F)c4nc(NC(=O)C5CN(CCF)C5)cn4c3)cc(C)c2n1 [Compound 266, N-(6-(2,8-dimethylimidazo[1,2-b]pyridazin-6-yl)-8-fluoroimidazo[1,2-a]pyridin-2-yl)-1-(2-fluoroethyl)azetidine-3-carboxamide]	> 7.00
Cc1cn2nc(-c3cc(F)c4nc(NC(=O)C5CN(CC(F)F)C5)cn4c3)cc(C)c2n1 [Compound 267, 1-(2,2-difluoroethyl)-N-(6-(2,8-dimethylimidazo[1,2-b]pyridazin-6-yl)-8-fluoroimidazo[1,2-a]pyridin-2-yl)azetidine-3-carboxamide]	6.00 to 7.00
Cc1cn2nc(-c3cc(F)c4nc(NC(=O)C5CCNC6(CC6)C5)cn4c3)cc(C)c2n1 (centres unmarked) [Compound 268, N-(6-(2,8-dimethylimidazo[1,2-b]pyridazin-6-yl)-8-fluoroimidazo[1,2-a]pyridin-2-yl)-4-azaspiro[2.5]octane-7-carboxamide]	> 7.00
